In data set [1] the test system is increase in intravesical pressure induced by carbachol in anesthetized dog. Description: Effect on the increase in intravesical pressure induced by carbachol in anesthetized dog. It counts as in vivo, Beagle dogs. The following applies: intraduodenal administration. The method, then:
Effect on the increase in intravesical pressure induced by carbachol in anesthetized dog
Female Beagle dogs weighing 8.0-15.0 kg were fasted for 24 hours and maintained under halothane anesthesia. A 12F Foley catheter was lubricated with water soluble jelly, inserted into the urethral orifice and advanced approximately 10 cm until the balloon tip was placed well inside the bladder. The balloon was then inflated with 5 ml of room air and catheter slowly withdrawn just part the first resistance that is felt at the bladder neck. Urine was completely drained out through the catheter, and 30 ml of biological saline was infused. The catheter was connected to pressure transducer, and intravesical pressure was continuously recorded. Intraduodenal administration of test compound (I) inhibited carbachol (1.8 μg/kg)-induced increase in intravesical pressure (IVP).

As to `CCOC(=O)COc1ccc(S(=O)(=O)c2ccc(CCNC[C@H](O)c3cccc(Cl)c3)cc2)cc1.Cl`, the melting point (usually the temperature of the solid-liquid transition) was in the range of 198 to 200 °C.

As to `O=S(=O)(c1ccccc1)c1ccc(C[C@@H](CO)NC[C@H](O)COc2ccccc2)cc1` [Test Compound (1), (2S)-2-[((2S)-2-Hydroxy-3-phenoxypropyl)amino]-3-[4-(phenylsulfonyl)phenyl]-1-propanol], the “% inhibition of carbachol-induced increase in IVP” value in data set [1] (0.32 mg/kg, female Beagle dogs under halothane anesthesia, carbachol 1.8 μg/kg) is listed as 30%. Further, in data set [1] (anesthetized female Beagle dogs), the “carbachol (1.8 μg/kg)-induced increase in intravesical pressure (IVP)” value is listed as “inhibited”.

The record behind these values is patent US20040138462A1, “Aminoalcohol derivatives” (priority 2001, published 2004).
